Laboratory results from patent publication US5023239A, “Sialosyl cholesterol, process for producing the same, and neuropathy remedy comprising the same” (MECT Corporation, priority 1986, dated 1991).

Tested on: Neuroblastoma Cell, Neuro 2a Strain
Test: Effect on proliferation / neurite propagation of neuroblastoma cell, Neuro 2a strain
Type: cell-based, mouse
Conditions: for activity (in words): 24 hours cultivation; for minimal effective concentration: 48 hours after addition
Experimental: Experiments for confirming the activity of the present compound for promoting propagation of neurites will be explained below.
Effect On Proliferation of Neuroblastoma Cell, Neuro 2a Strain
Neuro 2a was floated on culture medium consisting of 90% of Dulbecco's Modified Eagle's Midium, and 10% of fetal calf serum (FCS), and containing 100 units/ml of penicillin G and 100 micro g/ml of streptomycin sulfate, and then cultivated at 37° C. in a carbon dioxide incubator containing air into which 5% of carbon dioxide was incorporated. The vessel as used was a polystyrene tray having a diameter of 60 mm. 1 to 2×10^4 of the neuroblastoma cells were implanted in each tray and cultivated for 48 hours. The FCS-containing culture was removed from the resultant cell culture. […] When 24 and 48 hours had passed after the addition of these medicines, the number of the living cells increased in the culture, the number of the neurites increased, and the length of the neurites were measured. The experiment was conducted on three trays with respect to each concentration. The resultant data were expressed by average value+standard error (S.E).

## <NAcNeu (alpha 2-8) NAcNeu (alpha 2-3)>Gal (beta 1-3) GalNAc (beta 1-4)- NAcNeu-(alpha 2-8) <NAcNeu- (alpha 2-3)>-Gal (beta 1-4) Glc (beta 1-1)-Ceramide [GQlb]
  activity (in words): do not provide any activity
  minimal effective concentration: 10 micro g/ml
24 hrs, 10 ng/ml
  Length of neurite ± S.E.: 88.5 ± 5.00 μm/cell
  Number of neurite propagated cells: 174
  Number of neurites ± S.E.: 1.3 ± 0.05 number/cell
  Rate of neurite propagation (%): 51.8%
  Total number of cells: 336
24 hrs, 100 ng/ml
  Length of neurite ± S.E.: 86.0 ± 4.72 μm/cell
  Number of neurite propagated cells: 159
  Number of neurites ± S.E.: 1.3 ± 0.04 number/cell
  Rate of neurite propagation (%): 48.0%
  Total number of cells: 331
24 hrs, 1 μg/ml
  Length of neurite ± S.E.: 97.6 ± 4.95 μm/cell
  Number of neurite propagated cells: 157
  Number of neurites ± S.E.: 1.4 ± 0.05 number/cell
  Rate of neurite propagation (%): 51.0%
  Total number of cells: 308
24 hrs, 10 μg/ml
  Length of neurite ± S.E.: 114.9 ± 5.98 μm/cell
  Number of neurite propagated cells: 205
  Number of neurites ± S.E.: 1.4 ± 0.06 number/cell
  Rate of neurite propagation (%): 63.9%
  Total number of cells: 321
48 hrs, 10 ng/ml
  Length of neurite ± S.E.: 100.4 ± 5.76 μm/cell
  Number of neurite propagated cells: 158
  Number of neurites ± S.E.: 1.5 ± 0.06 number/cell
  Rate of neurite propagation (%): 42.6%
  Total number of cells: 371
48 hrs, 100 ng/ml
  Length of neurite ± S.E.: 90.4 ± 6.06 μm/cell
  Number of neurite propagated cells: 153
  Number of neurites ± S.E.: 1.2 ± 0.04 number/cell
  Rate of neurite propagation (%): 44.1%
  Total number of cells: 347
48 hrs, 1 μg/ml
  Length of neurite ± S.E.: 106.5 ± 6.40 μm/cell
  Number of neurite propagated cells: 182
  Number of neurites ± S.E.: 1.3 ± 0.04 number/cell
  Rate of neurite propagation (%): 47.4%
  Total number of cells: 384
48 hrs, 10 μg/ml
  Length of neurite ± S.E.: 122.5 ± 6.99 μm/cell
  Number of neurite propagated cells: 214
  Number of neurites ± S.E.: 1.3 ± 0.04 number/cell
  Rate of neurite propagation (%): 61.8%
  Total number of cells: 346

## Gal (beta 1-3) GalNac (beta 1-4 ) <NAcNeu-(alpha2-3)>Gal (beta 1-4) Glc (beta 1-1)-Ceramide [GM1]
  activity (in words): do not provide any activity
  minimal effective concentration: 10 micro g/ml
24 hrs, 10 ng/ml
  Length of neurite ± S.E.: 94.9 ± 6.64 μm/cell
  Number of neurite propagated cells: 145
  Number of neurites ± S.E.: 1.4 ± 0.05 number/cell
  Rate of neurite propagation (%): 43.4%
  Total number of cells: 334
24 hrs, 100 ng/ml
  Length of neurite ± S.E.: 101.1 ± 5.09 μm/cell
  Number of neurite propagated cells: 142
  Number of neurites ± S.E.: 1.4 ± 0.06 number/cell
  Rate of neurite propagation (%): 47.8%
  Total number of cells: 297
24 hrs, 1 μg/ml
  Length of neurite ± S.E.: 109.7 ± 6.44 μm/cell
  Number of neurite propagated cells: 140
  Number of neurites ± S.E.: 1.4 ± 0.06 number/cell
  Rate of neurite propagation (%): 42.2%
  Total number of cells: 332
24 hrs, 10 μg/ml
  Length of neurite ± S.E.: 89.3 ± 4.77 μm/cell
  Number of neurite propagated cells: 149
  Number of neurites ± S.E.: 1.4 ± 0.05 number/cell
  Rate of neurite propagation (%): 45.8%
  Total number of cells: 325
24 hrs, 100 μg/ml
  Length of neurite ± S.E.: 90.5 ± 3.88 μm/cell
  Number of neurite propagated cells: 172
  Number of neurites ± S.E.: 1.8 ± 0.06 number/cell
  Rate of neurite propagation (%): 55.5%
  Total number of cells: 310
48 hrs, 10 ng/ml
  Length of neurite ± S.E.: 93.7 ± 5.07 μm/cell
  Number of neurite propagated cells: 194
  Number of neurites ± S.E.: 1.4 ± 0.05 number/cell
  Rate of neurite propagation (%): 58.3%
  Total number of cells: 333
48 hrs, 100 ng/ml
  Length of neurite ± S.E.: 108.8 ± 5.97 μm/cell
  Number of neurite propagated cells: 156
  Number of neurites ± S.E.: 1.4 ± 0.06 number/cell
  Rate of neurite propagation (%): 44.7%
  Total number of cells: 349
48 hrs, 1 μg/ml
  Length of neurite ± S.E.: 109.2 ± 6.09 μm/cell
  Number of neurite propagated cells: 211
  Number of neurites ± S.E.: 1.3 ± 0.04 number/cell
  Rate of neurite propagation (%): 59.9%
  Total number of cells: 352
48 hrs, 10 μg/ml
  Length of neurite ± S.E.: 113.8 ± 5.49 μm/cell
  Number of neurite propagated cells: 205
  Number of neurites ± S.E.: 1.3 ± 0.04 number/cell
  Rate of neurite propagation (%): 62.1%
  Total number of cells: 330
48 hrs, 100 μg/ml
  Length of neurite ± S.E.: 98.9 ± 5.22 μm/cell
  Number of neurite propagated cells: 193
  Number of neurites ± S.E.: 1.5 number/cell
  Rate of neurite propagation (%): 60.9%
  Total number of cells: 317
